From US8053603B2, “Tetralone-based monoamine reuptake inhibitors” (Sunovion Pharmaceuticals Inc., priority 2006, dated 2011)
Where two headings read alike, the source gives them in different places.

What was measured:
Type in all cases: cell-based
[1] = biological target: T1, recombinant human dopamine transporter (Homo sapiens, UniProt Q01959); test: Dopamine functional uptake assay for human reuptake transporter; settings: [3H]dopamine uptake, CHO-K1 or HEK293 cells expressing human dopamine transporter; read-out: Human IC50 (nM) DAT
T1 construct: expressed in transfected cells; host or cells: CHO-K1 or HEK293
T1 sequence (Q01959 whole entry): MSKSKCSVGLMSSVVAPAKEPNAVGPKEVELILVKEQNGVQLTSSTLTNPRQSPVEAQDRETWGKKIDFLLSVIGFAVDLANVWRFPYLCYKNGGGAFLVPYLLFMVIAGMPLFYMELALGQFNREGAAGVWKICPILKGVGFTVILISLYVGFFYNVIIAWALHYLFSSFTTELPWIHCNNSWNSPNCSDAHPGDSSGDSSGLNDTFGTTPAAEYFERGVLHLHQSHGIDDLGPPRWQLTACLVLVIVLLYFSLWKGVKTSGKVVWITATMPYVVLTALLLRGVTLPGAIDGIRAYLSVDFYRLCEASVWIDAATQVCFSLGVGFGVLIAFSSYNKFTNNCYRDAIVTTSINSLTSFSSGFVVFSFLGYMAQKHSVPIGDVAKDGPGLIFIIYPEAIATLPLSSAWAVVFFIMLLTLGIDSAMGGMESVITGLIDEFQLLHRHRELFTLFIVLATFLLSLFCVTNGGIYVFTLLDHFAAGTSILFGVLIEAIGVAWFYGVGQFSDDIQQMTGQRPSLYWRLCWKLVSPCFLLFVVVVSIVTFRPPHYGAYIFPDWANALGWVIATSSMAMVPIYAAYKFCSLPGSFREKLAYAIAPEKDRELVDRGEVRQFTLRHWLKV
Procedure: Dopamine Functional Uptake Assay for Human Reuptake Transporter
Either CHO-K1 or HEK293 cells expressing human recombinant dopamine transporter were plated before the assay. Test compound and/or vehicle was preincubated with cells in modified HEPES buffer pH 7.1 or pH 7.4 for 20 minutes at 18 to 25° C. and 50 nM [^3H]dopamine was then added for an additional timed incubation period (10 to 30 minutes). After washing the cells to remove [^3H]dopamine not internalized, the cells were lysed, and the amount of tritium in the lysate was measured using a liquid scintillation counter to determine [^3H]dopamine uptake. Non-specific binding of tritium was measured in a control reaction containing 10 μM nomifensine, and was subtracted from the counts for assays to correct for non-specific binding of tritium. Reduction of [^3H]dopamine uptake by 50 percent or more (≧50%) relative to an uninhibited control reaction indicates significant inhibitory activity.

[2] = biological target: T2, recombinant human norepinephrine transporter (Homo sapiens, UniProt P23975); test: Norepinephrine functional uptake assay for human reuptake transporter; settings: [3H]norepinephrine uptake, HEK293 or MDCK cells expressing human norepinephrine transporter
T2 construct: expressed in transfected cells; host or cells: HEK293 or MDCK
T2 sequence (P23975 whole entry): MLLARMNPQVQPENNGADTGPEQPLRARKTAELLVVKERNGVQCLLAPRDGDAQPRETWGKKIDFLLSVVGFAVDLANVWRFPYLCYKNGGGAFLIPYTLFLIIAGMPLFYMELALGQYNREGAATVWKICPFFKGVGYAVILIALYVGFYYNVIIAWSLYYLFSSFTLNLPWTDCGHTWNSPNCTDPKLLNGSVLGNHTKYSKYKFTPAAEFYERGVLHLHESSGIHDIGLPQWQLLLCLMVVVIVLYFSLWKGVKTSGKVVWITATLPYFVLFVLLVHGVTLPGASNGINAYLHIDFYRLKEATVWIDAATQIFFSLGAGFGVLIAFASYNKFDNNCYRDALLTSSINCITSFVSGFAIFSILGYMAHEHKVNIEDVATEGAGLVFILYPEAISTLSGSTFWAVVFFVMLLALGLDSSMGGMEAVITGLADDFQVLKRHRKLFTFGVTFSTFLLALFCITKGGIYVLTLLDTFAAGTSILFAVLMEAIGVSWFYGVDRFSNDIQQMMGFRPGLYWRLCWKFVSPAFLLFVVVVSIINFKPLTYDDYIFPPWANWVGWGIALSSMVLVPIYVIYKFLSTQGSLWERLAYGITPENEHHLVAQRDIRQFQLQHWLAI
Procedure: Norepinephrine Functional Uptake Assay for Human Reuptake Transporter
The cells were plated before the assay. Test compound and/or vehicle was preincubated with cells in modified HEPES buffer pH 7.1 or pH 7.4 for 20 minutes at 18 to 25° C. . […] After the cells were washed to remove [^3H]norepinephrine not internalized, the cells were lysed, and the amount of tritium in the cell lysate was measured using a liquid scintillation counter to determine [^3H]norepinephrine uptake. Non-specific binding of tritium was measured in a control reaction containing 10 μM imipramine (or 10 μM nisoxetine), and was subtracted from the counts for assays to correct for non-specific binding of tritium. Reduction of [^3H]norepinephrine uptake by 50 percent or more (≧50%) relative to an uninhibited control reaction indicates significant inhibitory activity.

[3] = biological target: T3, recombinant human serotonin transporter (Homo sapiens, UniProt P31645); test: Serotonin functional uptake assay for human reuptake transporter; settings: [3H]serotonin uptake, HEK-293 cells expressing human serotonin transporter; read-out: Human IC50 (nM) SERT
T3 construct: expressed in transfected cells; host or cells: HEK-293
T3 sequence (P31645 whole entry): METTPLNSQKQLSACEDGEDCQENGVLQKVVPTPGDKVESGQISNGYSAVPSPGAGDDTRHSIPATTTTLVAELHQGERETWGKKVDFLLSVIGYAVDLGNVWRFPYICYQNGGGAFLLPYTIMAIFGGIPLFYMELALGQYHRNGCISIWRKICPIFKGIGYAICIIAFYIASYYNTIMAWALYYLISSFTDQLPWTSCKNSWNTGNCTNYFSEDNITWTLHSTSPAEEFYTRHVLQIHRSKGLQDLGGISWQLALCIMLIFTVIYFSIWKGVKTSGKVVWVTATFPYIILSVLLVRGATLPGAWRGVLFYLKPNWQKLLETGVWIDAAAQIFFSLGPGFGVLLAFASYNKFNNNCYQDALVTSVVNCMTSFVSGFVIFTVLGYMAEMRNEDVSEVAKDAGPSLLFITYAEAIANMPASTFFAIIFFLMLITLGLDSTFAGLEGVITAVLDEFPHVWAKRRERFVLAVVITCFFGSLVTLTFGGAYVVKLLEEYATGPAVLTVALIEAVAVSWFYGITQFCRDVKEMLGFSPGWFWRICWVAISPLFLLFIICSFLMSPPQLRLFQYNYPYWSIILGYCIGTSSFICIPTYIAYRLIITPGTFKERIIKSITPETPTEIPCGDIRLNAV
Procedure: Serotonin Functional Uptake Assay for Human Reuptake Transporter
HEK-293 cells expressing human serotonin transporter were plated before the assay. […] Cells with internalized [^3H]serotonin were washed and the amount of tritium taken into cells is counted using a liquid scintillation counter to determine [^3H]serotonin uptake.

| SMILES | IC50 [1] [nM] | IC50 ([2]; read-out: Human IC50 (nM) NET) [nM] | IC50 [3] [nM] | IC50 ([2]; Human IC50 (nM) NET) [nM] |
| --- | --- | --- | --- | --- |
| CN(C)[C@@H]1c2ccccc2CC[C@@H]1c1ccc(Cl)c(Cl)c1 (single isomer, unassigned) [Compound 41a, cis-2-(3,4-dichlorophenyl)-N,N-dimethyl-1,2,3,4-tetrahydronaphthalen-1-amine] | 2280 | > 10000 | 3170 | – |
| CN[C@H]1Cc2cc(OC)ccc2[C@@H](c2ccc(Cl)c(Cl)c2)C1 (single isomer, unassigned) [Compound 32c.1, 4-(3,4-dichlorophenyl)-7-methoxy-N-methyl-1,2,3,4-tetrahydronaphthalen-2-amine] | 18 | 571 | 68 | – |
| CN(C)[C@H]1CCc2ccccc2[C@H]1c1ccc(Cl)c(Cl)c1 (single isomer, unassigned) [Compound 37d, 1-(3,4-dichlorophenyl)-N,N-dimethyl-1,2,3,4-tetrahydronaphthalen-2-amine] | 36 | 1010 | 3150 | – |
| CN[C@@H]1Cc2cccc(OC)c2[C@H](c2ccc(Cl)c(Cl)c2)C1 (single isomer, unassigned) [Compound 32b.1, 4-(3,4-dichlorophenyl)-5-methoxy-N-methyl-1,2,3,4-tetrahydronaphthalen-2-amine] | 83 | 2330 | 359 | – |
| CC([C@@H]1Cc2ccccc2[C@H](c2ccc(Cl)c(Cl)c2)C1)N(C)C (single isomer, unassigned) [Compound 53] | 495 | 399 | 58 | – |
| CN[C@H]1Cc2cc(OC)ccc2[C@@H](c2ccc(Cl)c(Cl)c2)C1 (single isomer, unassigned) [Compound 32c.2, 4-(3,4-dichlorophenyl)-7-methoxy-N-methyl-1,2,3,4-tetrahydronaphthalen-2-amine] | 109 | 112 | 29 | – |
| COc1ccc2c(c1)C[C@H](N(C)C)C[C@@H]2c1ccc(Cl)c(Cl)c1 (single isomer, unassigned) [Compound 33c.1, 4-(3,4-dichlorophenyl)-7-methoxy-N,N-dimethyl-1,2,3,4-tetrahydronaphthalen-2-amine] | 194 | 943 | 24 | – |
| COc1ccc2c(c1)C[C@H](N(C)C)C[C@@H]2c1ccc(Cl)c(Cl)c1 (single isomer, unassigned) [Compound 33c.4, 4-(3,4-dichlorophenyl)-7-methoxy-N,N-dimethyl-1,2,3,4-tetrahydronaphthalen-2-amine] | 224 | 1900 | 92 | – |
| CC(N)C1=Cc2ccccc2[C@H](c2ccc(Cl)c(Cl)c2)C1 (single isomer, unassigned) [Compound 46] | 1660 | – | 50 | 580 |
| CN[C@H]1Cc2cc(OC)ccc2[C@@H](c2ccc(Cl)c(Cl)c2)C1 (single isomer, unassigned) [Compound 32c.4, 4-(3,4-dichlorophenyl)-7-methoxy-N-methyl-1,2,3,4-tetrahydronaphthalen-2-amine] | 78 | 111 | 209 | – |
| CC(N)[C@@H]1Cc2ccccc2[C@H](c2ccc(Cl)c(Cl)c2)C1 (stereo partly drawn) [Compound 51, 1-((2S,4S)-4-(3,4-dichlorophenyl)-1,2,3,4-tetrahydronaphthalen-2-yl)ethanamine] | 30 | – | 2 | 12 |
| COc1ccc2c(c1)C(c1ccc(Cl)c(Cl)c1)CC(N(C)C)C2 (single isomer, unassigned) [Compound 33a.1, 4-(3,4-dichlorophenyl)-6-methoxy-N,N-dimethyl-2,3,4-tetrahydronaphthalen-2-amine] | 781 | 2310 | 475 | – |
| COc1ccc2c(c1)C[C@H](N(C)C)C[C@@H]2c1ccc(Cl)c(Cl)c1 (single isomer, unassigned) [Compound 33c.3, 4-(3,4-dichlorophenyl)-7-methoxy-N,N-dimethyl-1,2,3,4-tetrahydronaphthalen-2-amine] | 83 | 906 | 616 | – |
| CC1(C)C[C@@H](c2ccc(Cl)c(Cl)c2)c2ccccc2C1N (stereo partly drawn) [Compound 59, (4S)-4-(3,4-dichlorophenyl)-2,2-dimethyl-1,2,3,4-tetrahydronaphthalen-1-amine] | 1080 | > 10000 | 5500 | – |
| CN(C)[C@@H]1c2ccccc2CC[C@@H]1c1ccc(Cl)c(Cl)c1 (single isomer, unassigned) [Compound 41b, cis-2-(3,4-dichlorophenyl)-N,N-dimethyl-1,2,3,4-tetrahydronaphthalen-1-amine] | 1120 | > 10000 | 9740 | – |
| CN(C)C1CC(c2ccc(Cl)c(Cl)c2)c2ccccc2C1O (single isomer, unassigned) [Compound 23a, 4-(3,4-dichlorophenyl)-2-(dimethylamino)-1,2,3,4-tetrahydronaphthalen-1-ol] | 371 | 710 | 117 | – |
| CN[C@H]1Cc2ccc(OC)cc2[C@@H](c2ccc(Cl)c(Cl)c2)C1 (stereo in doubt) [Compound 32a.3, 4-(3,4-dichlorophenyl)-6-methoxy-N-methyl-1,2,3,4-tetrahydronaphthalen-2-amine] | 1500 | 1050 | 4380 | – |
| CN[C@H]1Cc2ccc(OC)cc2[C@@H](c2ccc(Cl)c(Cl)c2)C1 (single isomer, unassigned) [Compound 32a.1, 4-(3,4-dichlorophenyl)-6-methoxy-N-methyl-1,2,3,4-tetrahydronaphthalen-2-amine] | 1080 | 1210 | 162 | – |
| CN[C@H]1Cc2cc(OC)ccc2[C@@H](c2ccc(Cl)c(Cl)c2)C1 (stereo in doubt) [Compound 32c.3, 4-(3,4-dichlorophenyl)-7-methoxy-N-methyl-1,2,3,4-tetrahydronaphthalen-2-amine] | 92 | 198 | 105 | – |
| CC1C[C@@H](c2ccc(Cl)c(Cl)c2)c2ccccc2/C1=N\O (single isomer, unassigned) [Compound 57] | 997 | 3890 | 3180 | – |
| CNC(C)C1=Cc2ccccc2[C@H](c2ccc(Cl)c(Cl)c2)C1 (single isomer, unassigned) [Compound 47] | 1140 | 1180 | 44 | – |
| CC(C1=Cc2ccccc2[C@H](c2ccc(Cl)c(Cl)c2)C1)N(C)C (stereo partly drawn) [Compound 48, 1-((S)-4-(3,4-dichlorophenyl)-3,4-dihydronaphthalen-2-yl)-N,N-dimethylethanamine] | 2440 | 2720 | 134 | – |
| CN(C)[C@H]1CCc2ccccc2[C@H]1c1ccc(Cl)c(Cl)c1 (single isomer, unassigned) [Compound 37c, 1-(3,4-dichlorophenyl)-N,N-dimethyl-1,2,3,4-tetrahydronaphthalen-2-amine] | 284 | 1190 | 70 | – |
| CC1C[C@@H](c2ccc(Cl)c(Cl)c2)c2ccccc2/C1=N\O (single isomer, unassigned) [Compound 58] | 436 | 2840 | 1700 | – |
| CN(C)C1CC(c2ccc(Cl)c(Cl)c2)c2ccccc2C1O (single isomer, unassigned) [Compound 23d, 4-(3,4-dichlorophenyl)-2-(dimethylamino)-1,2,3,4-tetrahydronaphthalen-1-ol] | 48 | – | 48 | 65 |
| CNC1c2ccccc2CCC1c1ccc(Cl)c(Cl)c1 (single isomer, unassigned) [Compound 40a, 2-(3,4-dichlorophenyl)-N-methyl-1,2,3,4-tetrahydronaphthalen-l-amine] | 3410 | > 10000 | 2470 | – |
| CN(C)[C@H]1CCc2ccccc2[C@H]1c1ccc(Cl)c(Cl)c1 (single isomer, unassigned) [Compound 37a, 1-(3,4-dichlorophenyl)-N,N-dimethyl-1,2,3,4-tetrahydronaphthalen-2-amine] | 235 | 2380 | 355 | – |
| COc1ccc2c(c1)C(c1ccc(Cl)c(Cl)c1)CC(N(C)C)C2 (single isomer, unassigned) [Compound 33a.3, 4-(3,4-dichlorophenyl)-6-methoxy-N,N-dimethyl-2,3,4-tetrahydronaphthalen-2-amine] | 2290 | 1170 | 207 | – |
